Measured values: US20220249599A1, “TREATMENT OF IMPLANTS WITH ENGINEERED ANTIMICROBIAL AMPHIPHILIC PEPTIDES” (priority 2018, published 2022)
Ends that are not written are not given here.

Legend:
[1] = tested on: Acinetobacter baumannii ATCC 19606 (non-MDR); format: cell-based; conditions: ATCC 19606
Description: (§1) Each peptide was formulated in PBS buffer prior to testing. Peptides of SEQ ID NO:5 and SEQ ID NO:8 were brought up in 100% DMSO with 0.002% polysorbate-80 at 1.28 mg/mL (40× the highest final test concentration of 32 mcg/mL). Final test concentration of DMSO was 2.5% in the assay at the first dilution for those two compounds.
(§2) Mueller Hinton II broth (MHB II; BD; Lot Nos. 6258541 and 7143896) was used for MIC testing of aerobic organisms. 0.002% polysorbate 80 (P80) was added to the test medium.
(§3) MIC values were determined using a broth microdilution procedure described by CLSI (1, 3). Automated liquid handlers (Multidrop 384, Labsystems, Helsinki, Finland; Biomek 2000 and Biomek FX, Beckman Coulter, Fullerton Calif.) were used to conduct serial dilutions and liquid transfers.
(§4) To prepare the drug mother plates, which would provide the serial peptide dilutions for the replicate daughter plates, the wells of columns 2-12 of standard 96-well microdilution plates (Costar 3795) were filled with 150 µl of the designated diluent for each row of peptide.
(§5) The test articles and comparator compounds ([…] at 40× the highest concentration to be tested) were dispensed into the appropriate wells in column 1. The Biomek 2000 was then used to make 2-fold serial dilutions in the mother plates from column 1 through column 11. The wells of Column 12 contained no drug and served as the organism growth control wells for the assay.
(§6) The daughter plates were loaded with 185 μL per well of MHB II using the Multidrop 384. The daughter plates were completed on the Biomek FX instrument which transferred 5 uL of peptide solution from each well of a mother plate to the corresponding well of each daughter plate in a single step. A standardized inoculum of each test organism was prepared per CLSI methods. The inoculum for each organism was dispensed into sterile reservoirs divided by length (Beckman Coulter), and the Biomek 2000 was used to inoculate the plates. Daughter plates were placed on the Biomek 2000 work surface in reverse orientation so that inoculation took place from low to high drug concentration.
(§7) Plates were stacked 3-4 high, covered with a lid on the top plate, placed in plastic bags, and incubated at 35° C. for 16 to 20 hrs. Following incubation, the microplates were removed from the incubator and viewed from the bottom using a plate viewer. […] The MIC was read and recorded as the lowest concentration of peptide that inhibited visible growth of the organism.

[2] = tested on: Enterococcus faecalis ATCC 29212 (VSE; QC); format: cell-based; conditions: ATCC 29212
Description: as §1, §2, §3, §4, §5, §6, §7

[3] = tested on: Enterococcus faecalis ATCC 700802 (V583 VRE); format: cell-based; conditions: ATCC 700802
Description: as §1, §2, §3, §4, §5, §6, §7

[4] = tested on: Enterococcus faecium ATCC 51559 (VRE); format: cell-based; conditions: ATCC 51559
Description: as §1, §2, §3, §4, §5, §6, §7

[5] = tested on: Escherichia coli ATCC 25922 (QC); format: cell-based; conditions: ATCC 25922
Description: as §1, §2, §3, §4, §5, §6, §7

[6] = tested on: Escherichia coli ATCC 35218 (ESBL); format: cell-based; conditions: ATCC 35218
Description: as §1, §2, §3, §4, §5, §6, §7

[7] = tested on: Escherichia coli ATCC BAA-2471 (NDM-1); format: cell-based; conditions: ATCC BAA-2471
Description: as §1, §2, §3, §4, §5, §6, §7

[8] = tested on: Klebsiella pneumoniae ATCC BAA-1705 (KPC); format: cell-based; conditions: ATCC BAA-1705
Description: as §1, §2, §3, §4, §5, §6, §7

[9] = tested on: Pseudomonas aeruginosa ATCC 27853 (non-MDR; QC); format: cell-based; conditions: ATCC 27853
Description: as §1, §2, §3, §4, §5, §6, §7

[10] = tested on: Pseudomonas aeruginosa ATCC BAA-2109 (MDR); format: cell-based; conditions: ATCC BAA-2109
Description: as §1, §2, §3, §4, §5, §6, §7

[11] = tested on: Staphylococcus aureus ATCC 29213 (MSSA; QC); format: cell-based; conditions: ATCC 29213
Description: as §1, §2, §3, §4, §5, §6, §7

[12] = tested on: Staphylococcus aureus ATCC 43300 (MRSA); format: cell-based; conditions: ATCC 43300
Description: as §1, §2, §3, §4, §5, §6, §7

[13] = tested on: Staphylococcus aureus NRS382 (USA100; HA-MRSA); format: cell-based; conditions: USA100
Description: as §1, §2, §3, §4, §5, §6, §7

[14] = tested on: Streptococcus pneumoniae ATCC 49619 (QC); format: cell-based; conditions: ATCC 49619
Description: as §1, §2, §3, §4, §5, §6, §7

[15] = tested on: Streptococcus pyogenes ATCC 49399; format: cell-based; conditions: ATCC 49399
Description: as §1, §2, §3, §4, §5, §6, §7

[16] = tested on: Acinetobacter baumannii ATCC BAA-1797 (MDR); test: microbe, parasite or virus in culture; format: cell-based; conditions: ATCC BAA-1797
Description: as §1, §2, §3, §4, §5, §6, §7

[17] = tested on: S. aureus; test: Periprosthetic joint infection mouse model, implant biofilm CFU burden; format: in vivo; conditions: intraperitoneal delivery, versus untreated control mice
Description: Periprosthetic joint infection was modeled in a mouse by placing an intra-articular K-wire through the medullary canal of the proximal femur followed by intra-articular inoculation with S. aureus. Animals were treated systemically with an intraperitoneal delivery of cefazolin, rifampin, or the exemplary peptide of SEQ ID NO:1. Intraperitoneal delivery was chosen due to technical difficulties associated with intravenous delivery. Implant sonication and proximal femur homogenate were used to quantify viable bacteria.

[18] = tested on: P. aeruginosa strains (PAO1 and 2 clinical isolates); format: cell-based; conditions: three P. aeruginosa strains, 0.5×MIC exposure
From the text: Each antibiotic was compared for their propensity to select for bacterial resistance phenotypes in vitro.

Molecule | MIC [1] [mg/L] | MIC [2] [mg/L] | MIC [3] [mg/L] | MIC [4] [mg/L] | MIC [5] [mg/L] | MIC [6] [mg/L] | MIC [7] [mg/L] | MIC [8] [mg/L] | MIC [9] [mg/L] | MIC [10] [mg/L] | MIC [11] [mg/L] | MIC [12] [mg/L] | MIC [13] [mg/L] | MIC [14] [mg/L] | MIC [15] [mg/L] | MIC [16] [mg/L] | Reduction of implant biofilm CFU burden (sonicate culture) [17] | Time to development of resistance (fold MIC>10) [18] [days]
CO[C@H]1/C=C/O[C@@]2(C)Oc3c(C)c(O)c4c(O)c(c(/C=N/N5CCN(C)CC5)c(O)c4c3C2=O)NC(=O)/C(C)=C\C=C\[C@H](C)[C@H](O)[C@@H](C)[C@@H](O)[C@@H](C)[C@H](OC(C)=O)[C@@H]1C [Rifampin] |  |  |  |  |  |  |  |  |  |  |  |  |  |  |  |  | comparable reduction in biofilms sonicate as compared to SEQ ID NO:1 | ≤ 3
IRRRRRRIRRRRRR [SEQ ID NO: 2] | 32 | >32 | >32 | 16 | 16 | 16 | 32 | >32 | >32 | 8 | 16 | 16 | 8 | >32 | 32 | >32 |  | 
LL-37 [LL37] |  |  |  |  |  |  |  |  |  |  |  |  |  |  |  |  |  | 9

The next lines start with results.

MIC [1] [mg/L] | MIC [2] [mg/L] | MIC [3] [mg/L] | MIC [4] [mg/L] | MIC [5] [mg/L] | MIC [6] [mg/L] | MIC [7] [mg/L] | MIC [8] [mg/L] | MIC [9] [mg/L] | MIC [10] [mg/L] | MIC [11] [mg/L] | MIC [12] [mg/L] | MIC [13] [mg/L] | MIC [14] [mg/L] | MIC [15] [mg/L] | MIC [16] [mg/L] | Molecule | Reduction of implant biofilm CFU burden (sonicate culture) [17] | Time to development of resistance (fold MIC>10) [18] [days]
16 | 16 | 16 | 8 | 16 | 16 | 32 | >32 | >32 | 16 | 16 | 8 | 8 | 32 | 32 | 32 | VWRWVRRVWRWVRRVWRWVRR [SEQ ID NO: 5] |  | 
8 | 32 | >32 | 4 | 4 | 4 | 4 | 32 | 4 | 2 | 8 | 8 | 8 | 32 | 16 | 16 | IRRRIRRIRRRIRRIRRRIRR [SEQ ID NO: 3] |  | 
>32 | >32 | >32 | 16 | >32 | 32 | 16 | >32 | >32 | >32 | >32 | >32 | >32 | >32 | 16 | >32 | VVRVVRRVVRVVRR [SEQ ID NO: 7] |  | 
32 | 4 | 4 | 0.25 | >32 | >32 | >32 | >32 | >32 | 16 | >32 | 32 | >32 | >32 | 16 | >32 | VVRVVRVVVRVVRVVVRVVRV [SEQ ID NO: 8] |  | 
